Patent US20230184744A1, “INTERTUMORAL HOMOGENEITY DETERMINED BY MiCK ASSAY” (Pierian Biosciences, LLC, priority 2014, published 2023)

Columns and labels:
[1] = tested on: Probable mesothelioma (pleural effusion); test: MiCK assay, drug-induced apoptosis, Table 3 tumor A2; assay type: cell-based, human; conditions: Table 3 tumor A2: Probable mesothelioma (pleural effusion); 48 hours with drug
Description: (§1) Data were obtained optically using Mie light-scattering.
When the optimal cell concentration is reached, put the cells in the plate and incubate overnight in the incubating chamber of the incubator (37° C.).

[2] = tested on: NSCLC, bilateral well-differentiated adenocarcinoma (site 1A); test: MiCK assay, drug-induced apoptosis, Table 3 tumor B1; assay type: cell-based, human; conditions: Table 3 tumor B1: NSCLC, bilateral well-differentiated adenocarcinoma (site 1A); 48 hours with drug
Source text: as §1
(§2) Do a test well. […] Look at the well under the inverted microscope. […] Repeat until optimal cell concentration is found. Plate the cells into the wells.

[3] = tested on: NSCLC, bilateral well-differentiated adenocarcinoma (site 1B); test: MiCK assay, drug-induced apoptosis, Table 3 tumor B2; assay type: cell-based, human; conditions: Table 3 tumor B2: NSCLC, bilateral well-differentiated adenocarcinoma (site 1B); 48 hours with drug
Source text: as §1, §2

[4] = tested on: NSCLC, multi-focal, recurrent adenocarcinoma (site A); test: MiCK assay, drug-induced apoptosis, Table 3 tumor C1; assay type: cell-based, human; conditions: Table 3 tumor C1: NSCLC, multi-focal, recurrent adenocarcinoma (site A); 48 hours with drug
Source text: as §1, §2

[5] = tested on: NSCLC, multi-focal, recurrent adenocarcinoma (site B); test: MiCK assay, drug-induced apoptosis, Table 3 tumor C2; assay type: cell-based, human; conditions: Table 3 tumor C2: NSCLC, multi-focal, recurrent adenocarcinoma (site B); 48 hours with drug
Source text: as §1, §2

[6] = tested on: NSCLC, multi-focal, recurrent adenocarcinoma (right lung); test: MiCK assay, drug-induced apoptosis, Table 3 tumor D1; assay type: cell-based, human; conditions: Table 3 tumor D1: NSCLC, multi-focal, recurrent adenocarcinoma (right lung); 48 hours with drug
Source text: as §1, §2

[7] = tested on: NSCLC, multi-focal, recurrent adenocarcinoma (lymph node); test: MiCK assay, drug-induced apoptosis, Table 3 tumor D2; assay type: cell-based, human; conditions: Table 3 tumor D2: NSCLC, multi-focal, recurrent adenocarcinoma (lymph node); 48 hours with drug
Source text: as §1, §2

[8] = tested on: NSCLC, multi-focal adenocarcinoma (site A); test: MiCK assay, drug-induced apoptosis, Table 3 tumor E1; assay type: cell-based, human; conditions: Table 3 tumor E1: NSCLC, multi-focal adenocarcinoma (site A); 48 hours with drug
Source text: as §1, §2

[9] = tested on: NSCLC, multi-focal adenocarcinoma (site B); test: MiCK assay, drug-induced apoptosis, Table 3 tumor E2; assay type: cell-based, human; conditions: Table 3 tumor E2: NSCLC, multi-focal adenocarcinoma (site B); 48 hours with drug
Source text: as §1, §2

[10] = tested on: Lung adenocarcinoma (pleural effusion); test: MiCK assay, drug-induced apoptosis, Table 4 tumor B1; assay type: cell-based, human; conditions: Table 4 tumor B1: Lung adenocarcinoma (pleural effusion); 48 hours with drug
Source text: as §1
(§3) Patients: Three patients were included in this study. […] Patient A was diagnosed with pancreatic islet cell cancer; sample 1 was collected from lymph node and sample 2 was collected from the primary tumor. Patient B was diagnosed with lung cancer NSCLC adenocarcinoma; sample 1 was collected from pleural effusion and sample 2 was collected from solid tumor. […] Ages of the patients ranged from 51-79 years old with an average age of 65 years. One patient was […] and two were female.

[11] = tested on: Lung adenocarcinoma (solid tumor); test: MiCK assay, drug-induced apoptosis, Table 4 tumor B2; assay type: cell-based, human; conditions: Table 4 tumor B2: Lung adenocarcinoma (solid tumor); 48 hours with drug
Source text: as §1, §3

[12] = tested on: Pancreatic islet cell cancer (lymph node); test: MiCK assay, drug-induced apoptosis, Table 4 tumor A1; conditions: Table 4 tumor A1: Pancreatic islet cell cancer (lymph node); 48 hours with drug
Description: (§4) After overnight incubation, chemotherapy drugs were added to the wells of the 96-well plate in 5 μL aliquots or to the wells of a 384-well plate in 2.5 μL aliquots using an automated pipettor. The number of drugs or drug combinations and the number of concentrations tested depended on the number of viable malignant cells that were isolated from the tumor specimen. The drug concentrations, determined by molarity, were those indicated by the manufacturer as the desired blood level concentration plus or minus one serial dilution if enough cells were available.
(§5) Following drug addition, the plate was incubated for 30 min. at 37° C. in a 5% carbon dioxide humidified atmosphere incubator. Each well was then overlayed with sterile mineral oil, and the plate was placed into the incubator chamber of a microplate spectrophotometric reader. The optical density at 600 nanometers was read and recorded every 5 minutes over a period of 48 hours.
(§6) Patients: Three patients were included in this study. Two tumor samples from different tumor sites were collected from each patient. Both samples from each patient were collected on the same day.

[13] = tested on: Pancreatic islet cell cancer (primary tumor); test: MiCK assay, drug-induced apoptosis, Table 4 tumor A2; conditions: 48 hours with drug
Description: as §4
(§7) Following drug addition, the plate was incubated for 30 min. at 37° C. in a 5% carbon dioxide humidified atmosphere incubator. Each well was then overlayed with sterile mineral oil, and the plate was placed into the incubator chamber of a microplate spectrophotometric reader. The optical density at 600 nanometers was read and recorded every 5 minutes over a period of 48 hours. Optical density increases, which correlates with apoptosis, were converted to kinetic units (KU) of apoptosis by a proprietary software ProApo with a formula described in the Kravtsov reference incorporated by reference (i.e. Kravtsov V. et al. “Use of the Microculture Kinetic Assay of apoptosis to determine chemosensitivities of leukemias.” Blood 1998; 92:968-980).
(§8) Purified tumor cells were cultured for 48 hours with individual drugs, and drug-induced apoptosis was measured using the MiCK assay as described in Example 1. Data were obtained optically using Mie light-scattering.

[14] = tested on: Lung small cell carcinoma (site A); test: MiCK assay, drug-induced apoptosis, Table 4 tumor C1; conditions: Table 4 tumor C1: Lung small cell carcinoma (site A); 48 hours with drug
Description: as §4, §5, §6

[15] = tested on: Lung adenocarcinoma (site B); test: MiCK assay, drug-induced apoptosis, Table 4 tumor C2; conditions: Table 4 tumor C2: Lung adenocarcinoma (site B); 48 hours with drug
Description: as §4, §7, §8

| SMILES | kinetic units (KU) of apoptosis [1] [KU] | kinetic units (KU) of apoptosis [2] [KU] | kinetic units (KU) of apoptosis [3] [KU] | kinetic units (KU) of apoptosis [4] [KU] | kinetic units (KU) of apoptosis [5] [KU] | kinetic units (KU) of apoptosis [6] [KU] | kinetic units (KU) of apoptosis [7] [KU] | kinetic units (KU) of apoptosis [8] [KU] | kinetic units (KU) of apoptosis [9] [KU] | kinetic units (KU) of apoptosis [10] [KU] | kinetic units (KU) of apoptosis [11] [KU] | kinetic units (KU) of apoptosis [12] [KU] | kinetic units (KU) of apoptosis [13] [KU] | kinetic units (KU) of apoptosis [14] [KU] | kinetic units (KU) of apoptosis [15] [KU] |
| --- | --- | --- | --- | --- | --- | --- | --- | --- | --- | --- | --- | --- | --- | --- | --- |
| N.N.[Cl][Pt][Cl] [Cisplatin] | 2.80 | 1.50 | 2.10 | 0.00 | 2.10 | 1.00 | 1.00 | 0.80 | 0.50 | 2.20 | 2.20 | 1.31 | 1.75 | 6.40 | 5.40 |
| COc1cccc2c1C(=O)c1c(O)c3c(c(O)c1C2=O)C[C@@](O)(C(=O)CO)C[C@@H]3O[C@H]1C[C@H](N)[C@H](O)[C@H](C)O1 [Doxorubicin] | 3.80 | 1.70 | 0.90 | 0.80 | 1.50 | 1.50 | 1.40 | 1.60 | 1.50 | 3.50 | 3.50 | 1.27 | 2.06 | 1.60 | 0.90 |
| CC(=O)O[C@@]12CO[C@@H]1C[C@H](O)[C@@]1(C)C(=O)[C@H](O)C3=C(C)[C@@H](OC(=O)[C@H](O)[C@@H](NC(=O)OC(C)(C)C)c4ccccc4)C[C@@](O)([C@@H](OC(=O)c4ccccc4)[C@H]21)C3(C)C [Docetaxel] | 1.10 | 2.60 | 2.00 | 0.90 | 2.30 | 0.50 | 0.70 | 0.90 | 0.20 | 4.20 | 2.40 | 3.20 | 2.65 | 3.20 | 2.10 |
